The record followed here is a melting point compilation (Tetko et al.; mined from patent text by program, amines drawn as free bases though some values may be those of a salt).

SMILES strings stand for the structures.

One may read the melting point as the temperature of the solid-liquid transition. `COc1ccc(CSc2cccc3c2C(=O)c2cccc(SCc4ccc(OC)cc4)c2C3=O)cc1`: the melting point fell in the range of 297 to 299 °C. For `COc1ccc(N2CC(=O)c3ccccc3S2)cc1O` the value was 228 to 232 °C; for `CCCCCC(=O)c1ccc(OCc2ccc3ccccc3n2)cc1`, 78 to 80 °C; for `CCC(=O)NNC(=O)NCCOc1ccccc1`, 178 to 183 °C. In the case of `O=C(NCCCN1CCN(Cc2ccc(Cl)cc2)CC1)NC1CCCCC1` it was 109 to 112 °C. Molecule `O=C1Cc2cc(Br)cnc2N1` registered a melting point of 250 °C. Take `COCCc1nc2c(N)nc3cc(-c4ccsc4)ccc3c2n1CC(C)(C)O`: the melting point was 233 to 234 °C. Consider `CCc1ncnc2cc(O)c(OC)cc12`, for which the melting point fell in the range of 210 to 215 °C. For `S=C(NCCc1ccccc1)N1CCN(c2cnccn2)CC1` the value was 162 to 163 °C; for `COc1ccc(-c2cccc(S(=O)(=O)N3CCC(Nc4nc(Nc5cccc(C(F)(F)F)c5)nc(OCC(F)(F)F)n4)CC3)c2)cc1`, 180 to 182 °C.

Take `O=S1(=O)CCC(c2ccccc2)(c2ccccc2)[C@@H]2CN(Cc3ccccc3)C[C@@H]21` (racemic): the melting point worked out at 186 °C. `Cc1cc(C)c(N)cc1N` gave a melting point of 170 to 172 °C.

With `CCOC(=O)C1=C(C(F)(F)F)Nc2n[nH]cc2C1c1ccccc1` (stereo not drawn), the melting point was 110 to 115 °C. For `CN1CCC=C(c2nsnc2SCCCC(=O)O)C1` the value was 99 to 101 °C.

Molecule `Cc1cccc(NC(=O)NC2N=C(c3ccccc3F)c3ccccc3N(Cc3cccnc3)C2=O)c1` (racemic) showed a melting point of 242 to 243 °C.

`O=[N+]([O-])C=C1SCCCN1S(=O)(=O)CCCCl` returned a melting point of 99 °C.

For the molecule `O=[N+]([O-])c1cc([N+](=O)[O-])c(N(SC(Cl)(Cl)Cl)c2cc(C(F)(F)F)ccc2Cl)c(C(F)(F)F)c1`, the melting point lay within 134 to 137 °C. In the case of `NC(C(=O)O)c1ccc(C(=O)O)cc1SCc1ccccc1` (stereo not drawn) it was 226 °C; in that of `CC(O)c1cc(C[C@H](NC(=O)c2c(Cl)cccc2Cl)C(=O)O)ccc1-c1ccccc1` (stereo partly drawn), 115 to 117 °C; in that of `CCCCc1nc(C(=O)CCC)c(C#N)[nH]1`, 91 to 92 °C. For `CCOC(=O)c1sc(C(=O)OCC)c2c1OCC(CC)(CC)CO2` the value was 100 °C. Molecule `Nc1ccc(OCOc2ccc(N)cc2[N+](=O)[O-])c([N+](=O)[O-])c1` returned a melting point of 181 °C. In the case of `O=S(=O)(Nc1ncnc(Cl)c1-c1ccc(Cl)cc1)c1ccc(C(F)(F)F)cc1` it was 275 °C. Consider `CCOC(=O)C1=C(C)NC(c2cscn2)=NC1c1ccc(F)cc1Cl` (stereo not drawn), for which the melting point fell in the range of 140 to 142 °C. For `CNc1ccc2cc(OC)ccc2c1N=O` the value was 261 °C; for `CCCCCCCCCCOc1ccc(C(=O)C=O)cc1`, 81 to 83 °C; for `CC(=O)c1ccc(Oc2cccnc2)cc1`, 45 to 50 °C. In the case of `Oc1ccc2c(-c3cc(F)ccc3F)noc2c1Cl` it was 256 to 257 °C; in that of `Cn1cc(Br)cc(Nc2ccccn2)c1=O`, 153 to 154 °C.

Molecule `CC(O)Cn1nc2c3c(ccc([N+](=O)[O-])c31)CCC2` (stereo not drawn) showed a melting point of 144 to 146 °C. Regarding `COc1cc(C(O)c2ccccc2[N+](=O)[O-])c(Br)cn1` (stereo not drawn), the melting point is 128 to 131 °C.

`COc1ccc(NCc2cc(OC)c(OC)c(OC)c2)cc1` registered a melting point of 73 to 74 °C. For `CCOCc1nc(N)c(N)c(=O)[nH]1` the value was 173 to 175 °C.

In the case of `CNC(=O)Nc1ccc(OCCCN2CCC(C(O)(c3ccc(F)cc3)c3ccc(F)cc3)CC2)cc1`, the melting point lay within 177 to 178 °C.

`O=C(CN1CCCC1=O)NCC(=O)Nc1ccncc1` registered a melting point of 243 to 245 °C. For `CC1(C)CCC(C)(C)c2cc(-c3cc(-c4ccc(C(=O)O)cc4)ccc3CCCO)ccc21` the value was 203 °C; for `COC(=O)c1cccc(Oc2cccc(-c3nnc(N(Cc4ccc(C(F)(F)P(=O)(O)O)c(Cl)c4)c4ccc(Cl)c(Cl)c4)s3)c2)c1`, 73 to 76 °C. In the case of `COc1cc(-c2ccc(C=O)cc2)nc(C)n1` it was 114 to 115 °C; in that of `CC(C)(C)c1ccc(C2(O)CN(C(c3ccccc3)c3ccccc3)C2)cc1`, 168 to 169 °C.

On to `CCOC(=O)CN1C(=O)c2cccc3c(Br)ccc1c23`, for which the melting point was in the range of 128 to 130 °C. The molecule `CC(C)(C)c1ccc(C(=O)c2ccc3n2Cc2ccccc2N(C(=O)c2ccc(C4CCCCC4)cc2)C3)cc1` showed a melting point of 143 to 145 °C.

Consider `CC(C)(C)OC(=O)N1CCC(CO)(c2ccccc2)CC1`, for which the melting point is 64 °C.

Molecule `COC(=O)C1CCc2cc(C(=O)c3cccs3)c(O)cc21` (stereo not drawn) registered a melting point of 183 to 184 °C. In the case of `COc1cccc2c1CCCC2N` (stereo not drawn) it was 22 to 25 °C; in that of `Cc1ccccc1-c1nc2n(c1-c1ccc(C3(NC(=O)OC(C)(C)C)CCC3)c(F)c1)-c1cccnc1Nc1ccccc1-2`, 138 to 140 °C. For `O=Cc1ccc(=O)[nH]c1` the value was 222 to 224 °C; for `C=C(COC1CC2C3CCC4=CC(=O)C=CC4(C)C3(F)C(O)CC2(C)C1(O)C(=O)CCl)c1ccccc1` (stereo not drawn), 212 to 214 °C; for `O=C1C(=O)c2ccccc2C2=C1SCC1(CCN(CCCCc3ccccc3)CC1)O2`, 145 to 147 °C. For `CS(=O)(=O)Nn1c(=O)[nH]c2cc(C(F)(F)F)c(-c3ccc(C#N)cc3)cc2c1=O` the value was 145 to 147 °C; for `Cc1cccc2c1C(=O)N(C)CC(=O)N2`, 200 to 202 °C; for `CCC(CC)N(C)c1cc(C(=O)OC)ccc1N1C(=O)CCC1(CO)CO`, 142 to 143 °C.

Turning to `NS(=O)(=O)CCCSc1ccc2ncc(Cl)n2n1`, the melting point is 136 to 137 °C.

Turning to `C=CCc1c(F)c(F)c(NN)c(F)c1F`, the melting point lay in the range of 79 to 81 °C. In the case of `COC(=O)CCCC#Cc1cc(Cl)ccc1NS(=O)(=O)c1ccc2c(c1)OCCN2C` it was 131 to 133 °C; in that of `COC(=O)COc1ccc(NC(=O)/C=C/c2ccc(C#N)cc2)cc1`, 197 °C.

On to `Cn1nnnc1-c1cn(C)c2cc(OC(F)F)ccc2c1=O`, for which the melting point was in the range of 225 to 228 °C. For the molecule `Cc1cc([N+](=O)[O-])c(NC(C)C(=O)N(C)OS(C)(=O)=O)c([N+](=O)[O-])c1` (stereo not drawn), the melting point is 145 °C. In the case of `Cc1cc(-c2nc3cccnn3c2-c2ccnc(NC(=O)c3cccc4cccnc34)c2)ccc1F` it was 229 to 230 °C. For `O=C(c1cccnc1)N1CCC(c2cccc(Cl)c2)=N1` the value was 124 to 126 °C; for `O=C(Nc1ccccc1)N1C(=S)C2(CCCCC2)NC12CCCCC2`, 143 to 144 °C. `Cc1oc(-c2ccccc2)nc1CCOc1ccc(CC(C)(C(=O)O)n2ccc(Br)c2)cc1` (stereo not drawn): the melting point lay within 158 to 159 °C.

On to `C=CCn1c(=O)n(CC=C)c(=O)n(-c2cc(N3C(=O)C4=C(CCCC4)C3=O)c(F)cc2Cl)c1=O`, for which the melting point was 80 to 85 °C. In the case of `CC(=O)OCC1OC(n2c(=S)[nH]c3cc(Cl)c(Cl)cc32)C(OC(C)=O)C1OC(C)=O` (stereo not drawn) it was 241 °C.
